Results taken from patent publication US8772500B2, “TRPV3 modulators” (AbbVie Inc., priority 2011, dated 2014).

Tests used:
[1] = In vitro human microsomal stability assay; assay type: in vitro ADME
Method: (§1) Test compounds were evaluated for metabolic stability in an in vitro rat microsomal stability assay using rat (Sprague-Dawley, from BD Biosciences) liver microsomes and/or an in vitro human microsomal stability assay using human (Xenotech) liver microsomes. […] Incubations were carried out at 37° C. with a final incubation volume of 135 μL. […] A 1.5 μL aliquot of reduced nicotine adenine disphosphonucleotide (NADPH) (Chem-Impex Int'L Inc., Lot 12532024) was also added to the time-zero plates.

[2] = In vitro rat microsomal stability assay; assay type: in vitro ADME, rat (Sprague-Dawley)
Method: as §1

[3] = Sprague-Dawley, rat, 0.5 h, 0.5 μM, pH 7.4
[4] = 0.5 μM substrate, 0.25 mg/mL microsomal protein, pH 7.4, 37° C., NADPH, 30 minutes

HUMAN MICROSOMAL STABILITY (% REMAINING AFTER 30 MINUTES) ([1]; human, 0.5 h, 0.5 μM, pH 7.4) [%]	RAT MICROSOMAL STABILITY (% REMAINING AFTER 30 MINUTES) [2, 3] [%]	SMILES	HUMAN MICROSOMAL STABILITY (% REMAINING AFTER 30 MINUTES) [1, 4] [%]	RAT MICROSOMAL STABILITY (% REMAINING AFTER 30 MINUTES) [2, 4] [%]
>85	>85	OC1CC(c2ccc(C(F)(F)F)cc2)([C@@H](O)c2ccccn2)C1 (mixture of isomers) [Example 199, 3-[(R)-hydroxy(pyridin-2-yl)methyl]-3-[4-(trifluoromethyl)phenyl]-cyclobutanol]		
40	0.17	OC(c1ccccn1)C1(c2cccc(F)c2)CCCO1 (single isomer, unassigned) [Example 101, (syn)-[2-(3-fluorophenyl)tetrahydrofuran-2-yl](pyridin-2-yl)methanol]		
>85	50	OC1CC(c2ccc(OC(F)(F)F)cc2)(C(O)c2ccccn2)C1 (single isomer, unassigned) [Example 131]		
9.2	<0.01	OC(C1CCCc2cccnc21)C1(c2ccc(OC(F)(F)F)cc2)CCC1 (single isomer, unassigned) [Example 178, (syn)-5,6,7,8-tetrahydroquinolin-8-yl{1-[4-(trifluoromethoxy)phenyl]-cyclobutyl}methanol]		
<0.01	<0.01	OC(C1CCCc2cccnc21)C1(c2cccc(C(F)(F)F)c2)CCC1 (single isomer, unassigned) [Example 180, (syn)-5,6,7,8-tetrahydroquinolin-8-yl{1-[3-(trifluoromethyl)phenyl]-cyclobutyl}methanol]		
<0.01	<0.01	OC(C1CCCc2cccnc21)C1(c2ccc(Cl)c(Cl)c2)CCC1 (single isomer, unassigned) [Example 182, (syn)-[1-(3,4-dichlorophenyl)cyclobutyl][5,6,7,8-tetrahydroquinolin-8-yl]-methanol]		
0.46	<0.01	OC(C1CCCc2cccnc21)C1(c2ccc(C(F)(F)F)cc2)CCC1 (single isomer, unassigned) [Example 184, (syn)-5,6,7,8-tetrahydroquinolin-8-yl{1-[4-(trifluoromethyl)phenyl]-cyclobutyl}methanol]		
81	>85	OC1CC(c2ccc(Cl)c(Cl)c2)(C(O)c2ncccn2)C1 (single isomer, unassigned) [Example 313]		
>85	76	OC(c1ccccn1)C1(c2ccccn2)CCC1 (stereo not drawn) [Example 19, pyridin-2-yl(1-pyridin-2-ylcyclobutyl)methanol]		
80	81	OC(c1ccccn1)C1(c2cccnc2)CCC1 (stereo not drawn) [Example 20, pyridin-2-yl(1-pyridin-3-ylcyclobutyl)methanol]		
71	52	OC(c1ccccn1)C1(c2ccncc2)CCC1 (stereo not drawn) [Example 21, pyridin-2-yl(1-pyridin-4-ylcyclobutyl)methanol]		
54	21	O[C@H](c1ncccn1)C1(c2ccc(C(F)(F)F)cc2)CCC1 [Example 41, (S)-pyrimidin-2-yl{1-[4-(trifluoromethyl)phenyl]cyclobutyl}methanol]		
50	40	O[C@@H](c1ncccn1)C1(c2ccc(C(F)(F)F)cc2)CCC1 [Example 42, (R)-pyrimidin-2-yl{1-[4-(trifluoromethyl)phenyl]cyclobutyl}methanol]		
1.8	0.31	OC(c1ccccn1)C1(c2ccc(Cl)c(Cl)c2)CCCCC1 (stereo not drawn) [Example 43, [1-(3,4-dichlorophenyl)cyclohexyl](pyridin-2-yl)methanol]		
47	8.6	OC(c1ccccn1)C1(c2ccc(Cl)c(Cl)c2)COC1 (stereo not drawn) [Example 87, [3-(3,4-dichlorophenyl)oxetan-3-yl](pyridin-2-yl)methanol]		
45	0.55	OC(c1ccccn1)C1(c2ccccc2F)CCCO1 (stereo not drawn) [Example 102]		
1.6	<0.01	Nc1cccnc1C(O)C1(c2cccc(C(F)(F)F)c2)CCC1 (stereo not drawn) [Example 120, (3-aminopyridin-2-yl){1-[3-(trifluoromethyl)phenyl]cyclobutyl}methanol]		
41	0.18	Nc1cccnc1C(O)C1(c2ccc(OC(F)(F)F)cc2)CCC1 (stereo not drawn) [Example 121, (3-aminopyridin-2-yl){1-[4-(trifluoromethoxy)phenyl]cyclobutyl}methanol]		
28	26	O[C@@H](c1ccccn1)C1(c2cc(C(F)(F)F)ccn2)CCC1 [Example 122, (R)-pyridin-2-yl{1-[4-(trifluoromethyl)pyridin-2-yl]cyclobutyl}methanol]		
1.6	<0.01	Nc1cccnc1C(O)C1(c2cccc(OC(F)(F)F)c2)CCC1 (stereo not drawn) [Example 124, (3-aminopyridin-2-yl){1-[3-(trifluoromethoxy)phenyl]cyclobutyl}methanol]		
>85	37	OC(c1ccccn1)C1(c2ccc(Cl)c(Cl)c2)CCNCC1 (stereo not drawn) [Example 140, [4-(3,4-dichlorophenyl)piperidin-4-yl](pyridin-2-yl)methanol]		
		CN1CCC(c2ccc(Cl)c(Cl)c2)(C(O)c2ccccn2)CC1 (stereo not drawn) [Example 141, [4-(3,4-dichlorophenyl)-1-methylpiperidin-4-yl](pyridin-2-yl)methanol]	>85	59
>85	37	OC(c1ccccn1)C1(c2ccccc2OC(F)(F)F)CCNCC1 (stereo not drawn) [Example 142, pyridin-2-yl{4-[2-(trifluoromethoxy)phenyl]piperidin-4-yl}methanol]		
		CN1CCC(c2ccc(C(F)(F)F)cc2)(C(O)c2ccccn2)CC1 (stereo not drawn) [Example 143, {1-methyl-4-[4-(trifluoromethyl)phenyl]piperidin-4-yl}(pyridin-2-yl)-methanol]	>85	80
>85	51	OC(c1ccccn1)C1(c2ccc(OC(F)(F)F)cc2)CCNCC1 (stereo not drawn) [Example 144, pyridin-2-yl{4-[4-(trifluoromethoxy)phenyl]piperidin-4-yl}methanol]		
0.18		OC(C1CCc2cccnc21)C1(c2cccc(C(F)(F)F)c2)CCC1 (stereo not drawn) [Example 186, (syn)-6,7-dihydro-5H-cyclopenta[b]pyridin-7-yl{1-[3-(trifluoromethyl)-phenyl]cyclobutyl}methanol]		
